Assays:
Kgp [1] = biological target: T1, Kgp (Porphyromonas gingivalis (Bacteroides gingivalis), UniProt Q51817); assay: Activity probe labelling of Kgp in P. gingivalis-infected Jurkat cells (SDS-PAGE); type: cell-based; settings: purified Kgp and infected Jurkat cells, FIG. 6A
From the text: The identity of this labeled protein in P. gingivalis-infected cells was confirmed to be Kgp by Western blot.

Kgp [2] = biological target: T2, Kgp (Porphyromonas gingivalis (strain ATCC 33277 / DSM 20709 / CIP 103683 / JCM 12257 / NCTC 11834 / 2561), UniProt B2RLK2); assay: Gingival tissue staining with activity probe; parameters: species or system human; settings: patient with periodontal disease, FIG. 5B
Method: Slides of fresh frozen gingival tissue (5 micron thickness) were removed from a −80° C. freezer and thawed at RT for 10 min. […] Slides were then washed three times in PBS, 5 min each, then fixed in fresh 4% PFA for 15 min at RT, then washed again three times in PBS. Then slides were incubated with a 1× working Trueblack solution (Biotium) for 30 min at RT. Slides were then washed three times in PBS and mounted with anti-fade mounting media containing DAPI (FIG. 5B).

[3] = biological target: Kgp in P. gingivalis W83 bacteria (Porphyromonas gingivalis (Bacteroides gingivalis), UniProt Q51817); assay: Bacterial smear staining with gingipain activity probes; type: cell-based; settings: 1 μM probe, 1 hr, 37° C.; no signal in Kgp knockout
Method: Bacteria were then pelleted and resuspended in 20 μl of PBS, which was dropped onto a poly-L-lysine coated slide and kept in a dark box at room temperature for about 2 hrs in order for the droplet to dry. The slide was then washed 3 times in PBS. Slides were mounted with a mounting media containing DAPI stain for bacterial DNA and visualized under fluorescence microscopy.

Kgp [4] = biological target: T2, Kgp; assay: Buccal cell staining with activity probe; type: cell-based, human; settings: 1 μM probe, 1 hr, 37° C., FIG. 7
Method: Cells were incubated for 1 hr at 37° C. and pelleted. Cells were resuspended in 20 μL of PBS and placed on poly-L-lysine coated slides, washed, and dried. Slides were mounted with antifade mounting media containing DAPI and visualized under a fluorescence microscope.

Kgp [5] = biological target: T1, Kgp; assay: Biotin activity probe pull-down of Kgp from P. gingivalis lysate; type: binding; settings: streptavidin beads, Western blot with CAB102, FIG. 8
Method: P. gingivalis W83 was lysed with B-Per buffer for 15 min at 4° C. […] 5 mg of streptavidin-beads were incubated with all samples for 1 hr at room temperature on an inverting platform. The beads were collected after 1 hr and heated at 100° C. for 5 min with 0.1% SDS to disrupt biotin-streptavidin binding. The resulting supernatants were analyzed by SDS-PAGE and Western blotting for specific detection of Kgp with CAB102 (FIG. 8).

| SMILES | binding of probe to Kgp (Kgp [1]) | fluorescence signal in gingival tissue section (Kgp [2]) | fluorescence of W83 bacteria after exposure to probe [3] | staining of buccal cells (Kgp [4]) | amount of P. gingivalis from which Kgp was pulled down and detected (Kgp [5]) |
| --- | --- | --- | --- | --- | --- |
| CC1=CC(C)=[N+]2C1=Cc1ccc(CCC(=O)NCc3cn(-c4cccc(C(=O)NC(CCCCN)C(=O)COc5c(F)cccc5F)c4)nn3)n1[B-]2(F)F (centres unmarked) [Compound 15a] | irreversibly binds to purified Kgp | yields a fluorescence signal | fluorescent | pronounced, punctate staining | – |
| NCCCCC(NC(=O)c1cccc(-n2cc(CNC(=O)CCCC[C@@H]3SC[C@@H]4NC(=O)N[C@@H]43)nn2)c1)C(=O)COc1c(F)cccc1F (some centres unmarked) [Compound 51a] | – | – | – | – | at least 10^6 CFU |
